Read-outs that look alike come from different tables or passages of the source.
Legend:
[1] = system: peripheral blood mononuclear cells; experiment: [3H]-thymidine incorporation (proliferation), anti-CD3 stimulated; assay type: cell-based; settings: Homo sapiens, PBMC; Table 9; 5 ng/ml anti-CD3 Ab for 48 h
Description: [^3H]-thymidine incorporation is a widely used test to assay the proliferative activity of human and rodent lymphocytes. As cells divide [^3H]-thymidine will be incorporated into the newly synthesised DNA of the resulting daughter cells. The faster cells grow the more radioactive [^3H]-thymidine will be incorporated. Any compound that inhibits lymphocytes proliferation will reduce the uptake of radioactivity by the cells treated with it compared to the untreated controls.
The selected compounds were tested to determine its ability to inhibit [^3H]-thymidine incorporation and the results are set out in table 6 below. Resting peripheral blood mononuclear cells from healthy volunteers were seeded at 2×10^5 cells per well in medium (RPMI 1640 supplemented 10% fetal calf serum, 2 mM glutamine, 1 mM sodium pyruvate, 1% nonessential amino acids, 100 units/ml penicillin, 100 μg/ml streptomycin and 50 μM β-mercaptoethanol) in flat-bottom 96 well plates (final volume 200 μl). Cells were pre-incubated with the compound of example 2 for 60 min, and were stimulated with 5 ng/ml anti-CD3 Ab for 48 h. [^3H]-Thymidine (1 μCi per well) was added for the last 6 h. Cells were harvested onto glass fibre filters and radioactivity measured in a scintillation counter. All experiments were done in triplicate. Results are normalised for maximum [^3H]-thymidine incorporation by control.

Kv1.3 = Kv1.3 (Homo sapiens, UniProt P22001); settings: cited from earlier work
Chain of Kv1.3 (P22001 whole entry): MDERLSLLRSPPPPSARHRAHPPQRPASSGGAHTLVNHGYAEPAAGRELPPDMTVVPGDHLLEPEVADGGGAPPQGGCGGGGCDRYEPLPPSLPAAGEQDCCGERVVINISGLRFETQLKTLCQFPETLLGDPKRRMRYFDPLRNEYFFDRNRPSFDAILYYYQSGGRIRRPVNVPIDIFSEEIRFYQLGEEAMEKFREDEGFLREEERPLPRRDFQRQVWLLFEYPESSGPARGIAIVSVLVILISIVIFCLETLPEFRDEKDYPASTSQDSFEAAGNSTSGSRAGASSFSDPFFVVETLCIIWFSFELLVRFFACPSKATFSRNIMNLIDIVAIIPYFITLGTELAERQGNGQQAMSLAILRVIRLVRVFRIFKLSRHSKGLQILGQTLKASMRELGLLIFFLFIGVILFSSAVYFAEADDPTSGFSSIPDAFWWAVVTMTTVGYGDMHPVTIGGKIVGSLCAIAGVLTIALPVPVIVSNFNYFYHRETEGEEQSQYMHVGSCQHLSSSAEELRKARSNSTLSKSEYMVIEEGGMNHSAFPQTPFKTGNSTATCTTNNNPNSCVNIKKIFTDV

SMILES	melting point	further results
COc1c(O)c(C(C)=O)c(OCCCc2ccccc2)c2ccoc12 [Compound 8]	94 to 95 °C	
COc1c(O)c(C(C)=O)c(OCc2ccccc2Cl)c2ccoc12 [Compound 12]	84 to 86 °C	
COc1c(C(C)=O)c(O)c(OCCCCCOc2c(O)c(C(C)=O)c(OC)c3ccoc23)c2occc12 [Compound 91]	132 to 134 °C	
COc1c(C(C)=O)c(O)c(OCc2cccc([N+](=O)[O-])c2)c2occc12 [Compound 52]	157 to 159 °C	
COc1c(C(C)=O)c(O)c(OCCCc2ccccc2)c2occc12 [Compound 41]	36 °C	EC50 [1]: 1000 nM
COc1c(O)c(C(C)=O)c(OCc2ccc(-c3ccccc3)cc2)c2ccoc12 [Compound 27]	163 to 167 °C	
COc1c(O)c(C(C)=O)c(OCc2cccc([N+](=O)[O-])c2)c2ccoc12 [Compound 20]	160 to 162 °C	
COc1c(C(C)=O)c(O)c(OCCc2ccccc2)c2occc12 [Compound 40]	102 to 104 °C	
COc1c(O)c(C(C)=O)c(OCc2ccccc2-c2ccccc2)c2ccoc12 [Compound 14]	126 to 127 °C	
COc1c(C(C)=O)c(O)c(OCCCCCc2ccccc2)c2occc12 [Compound 43]	31 to 32 °C	
COc1c(O)c(C(C)=O)c(OCc2cccc3ccccc23)c2ccoc12 [Compound 4]	96 to 98 °C	
COc1c(C(C)=O)c(O)c(OCc2ccc(-c3ccccc3)cc2)c2occc12 [Compound 59]	126 to 127 °C	
COc1c(O)c(C(C)=O)c(OCCCCCCOc2c(C(C)=O)c(O)c(OC)c3occc23)c2ccoc12 [Compound 86]	147 to 151 °C	
COc1c(C(C)=O)c(O)c(OCCCCc2ccccc2)c2occc12 [Compound 42]	28 °C	
COc1c(O)c(C(C)=O)c(OCc2cccc(OC(F)(F)F)c2)c2ccoc12 [Compound 19]	86 to 88 °C	
COc1c(C(C)=O)c(O)c(OC)c2occc12 [Khellinone]		blocking activity on the Kv1.3 channel (Kv1.3): exhibit blocking activity
COc1c(C(C)=O)c(O)c(OCCCCCCOc2c(O)c(C(C)=O)c(OC)c3ccoc23)c2occc12 [Compound 92]	109 to 111 °C	
COc1c(O)c(C(C)=O)c(OCc2ccc(COc3c(C(C)=O)c(O)c(OC)c4occc34)cc2)c2ccoc12 [Compound 89]	201 to 203 °C	

SMILES	melting point	further results
COc1c(O)c(C(C)=O)c(OCc2ccccc2F)c2ccoc12 [Compound 11]	105 to 108 °C	
COc1c(C(C)=O)c(O)c(OCc2ccccc2-c2ccccc2)c2occc12 [Compound 47]	115 to 117 °C	
COc1c2occc2c(OCCCCc2ccccc2)c2c(=O)cc(C)oc12 [Compound 99]	121 to 122 °C	
COc1c(O)c(C(C)=O)c(OCCCCCCCOc2c(C(C)=O)c(O)c(OC)c3occc23)c2ccoc12 [Compound 87]	122 to 125 °C	
COc1c(C(C)=O)c(O)c(OCc2cccc(COc3c(O)c(C(C)=O)c(OC)c4ccoc34)c2)c2occc12 [Compound 94]	125 to 128 °C	
COc1c(O)c(C(C)=O)c(OCc2ccc(C(=O)c3ccccc3)cc2)c2ccoc12 [Compound 31]	132 to 134 °C	
COc1c(C(C)=O)c(O)c(OCc2ccccc2F)c2occc12 [Compound 44]	89 to 92 °C	
COc1c(O)c(C(C)=O)c(OCCCCc2ccccc2)c2ccoc12 [Compound 9]	121 to 122 °C	
COc1c(O)c(C(C)=O)c(OCCCCOc2c(C(C)=O)c(O)c(OC)c3occc23)c2ccoc12 [Compound 84]	209 to 211 °C	
COc1c2occc2cc2ccc(=O)oc12 [Compound 8-MOP, 8-Methoxypsoralen]		blocking activity on the Kv1.3 channel (Kv1.3; result in words): exhibit blocking activity
COc1c(O)c(C(C)=O)c(OCc2cccc(F)c2)c2ccoc12 [Compound 15]	118 to 121 °C	
COc1c(C(C)=O)c(O)c(OCc2ccc(COc3c(O)c(C(C)=O)c(OC)c4ccoc34)cc2)c2occc12 [Compound 95]	184 to 186 °C	
COc1c(C(C)=O)c(O)c(OCc2ccc(OCc3ccccc3)cc2)c2occc12 [Compound 61]	118 to 120 °C	
COc1c(O)c(C(C)=O)c(OCc2cccc(COc3c(C(C)=O)c(O)c(OC)c4occc34)c2)c2ccoc12 [Compound 88]	184 to 186 °C	
CC(=O)c1c(O)c(OCc2ccccc2)c2occc2c1OCc1ccccc1 [Compound 82]	74 to 76 °C	
COc1c(O)c(C(C)=O)c(OCc2ccccc2C)c2ccoc12 [Compound 13]	101 to 103 °C	
COc1c(O)c(C(C)=O)c(OCCCCCOc2c(C(C)=O)c(O)c(OC)c3occc23)c2ccoc12 [Compound 85]	139 to 141 °C	
COc1c(O)c(C(C)=O)c(OCc2ccc(OCc3ccccc3)cc2)c2ccoc12 [Compound 30]	155 to 157 °C	

Continued, in another order:

melting point	SMILES	further results
117 to 118 °C	COc1c(C(C)=O)c(O)c(OCc2ccc(C(C)(C)C)cc2)c2occc12 [Compound 58]	
130 to 131 °C	COc1c(O)c(C(C)=O)c(OCc2ccc(OC(F)(F)F)cc2)c2ccoc12 [Compound 29]	
80 to 83 °C	COc1c(C(C)=O)c(O)c(OCc2ccc(C(C)C)cc2)c2occc12 [Compound 57]	
100 to 102 °C	COc1c(O)c(C(C)=O)c(OCc2ccc(F)cc2)c2ccoc12 [Compound 21]	
104 to 107 °C	COc1c(C(C)=O)c(O)c(OCc2ccccc2Cl)c2occc12 [Compound 45]	
110 °C	COc1c(C(C)=O)c(O)c(OCc2ccc(Cl)cc2)c2occc12 [Compound 54]	
99 to 101 °C	COc1c(O)c(C(C)=O)c(OCc2cccc(C)c2)c2ccoc12 [Compound 17]	
93 to 94 °C	COc1c(O)c(C(C)=O)c(OCc2ccccc2)c2ccoc12 [Compound 6]	
208 to 209 °C	COc1c(C(C)=O)c(O)c(OCc2ccc(C(=O)O)cc2)c2occc12 [Compound 63]	
99 to 100 °C	COc1c(C(C)=O)c(O)c(OCc2ccc(F)cc2)c2occc12 [Compound 53]	
106 to 108 °C	COc1c(O)c(C(C)=O)c(OCc2ccc(Cl)cc2)c2ccoc12 [Compound 22]	EC50 [1]: 2500 nM
73 to 75 °C	COc1c(O)c(C(C)=O)c(OCc2ccc(C(C)C)cc2)c2ccoc12 [Compound 25]	
108 to 111 °C	COc1c(O)c(C(C)=O)c(OCc2cccc(Cl)c2)c2ccoc12 [Compound 16]	
183 to 186 °C	COc1c(O)c(C(C)=O)c(OCc2ccc(C(=O)O)cc2)c2ccoc12 [Compound 32]	
114 to 115 °C	COc1c(C(C)=O)c(O)c(OCc2ccc3ccccc3c2)c2occc12 [Compound 38]	
104 to 106 °C	COc1c(O)c(C(C)=O)c(OCc2ccc(C(F)(F)F)cc2)c2ccoc12 [Compound 24]	
106 to 107 °C	COc1c(C(C)=O)c(O)c(OCc2ccc(Br)cc2)c2occc12 [Compound 55]	EC50 [1]: 2500 nM
89 to 91 °C	COc1c(C(C)=O)c(O)c(OCc2cccc(F)c2)c2occc12 [Compound 48]	
81 to 82 °C	COc1c(C(C)=O)c(O)c(OCc2cccc(C)c2)c2occc12 [Compound 50]	
79 to 80 °C	COc1c(C(C)=O)c(O)c(OCc2ccccc2)c2occc12 [Compound 39]	
105 to 108 °C	COc1c(C(C)=O)c(O)c(OCc2cccc(Cl)c2)c2occc12 [Compound 49]	
82 to 87 °C	COc1c(O)c(C(C)=O)c(OCc2ccc(C(C)(C)C)cc2)c2ccoc12 [Compound 26]	
90 to 91 °C	COc1c(C(C)=O)c(O)c(OCc2ccc(C(F)(F)F)cc2)c2occc12 [Compound 56]	
86 to 88 °C	COc1c(C(C)=O)c(O)c(OCc2ccccc2C)c2occc12 [Compound 46]	

— US8063093B2, “Potassium channel blockers and uses thereof” (priority 2005, dated 2011)
